Values of other authors as cited in patent publication US20090087487A1, “Paliperidone sustained release formulation” (priority 2007, published 2009).

## Cc1nc2n(c(=O)c1CCN1CCC(c3noc4cc(F)ccc34)CC1)CCCC2O (stereo not shown) [Paliperidone, 4H-Pyrido[1,2-a]pyrimidin-4-one, 3-[2-[4-(6-fluoro-1,2-benzisoxazol-3-yl)-1-piperidinyl]ethyl]-6,7,8,9-tetrahydro-9-hydroxy-2-methyl]
0.1 N hydrochloric acid
  solubility in 0.1 N hydrochloric acid: soluble
methanol
  solubility in methanol: soluble
Methylene chloride
  solubility in methylene chloride: freely soluble
water
  solubility in water: practically insoluble
